# Read-outs that look alike come from different tables or passages of the source. Square brackets hold non-standard residues; d marks the D form. Peptide text beside a SMILES is read from it. * marks the point of attachment. ξ: configuration not given here. dIle(3ξ) = CCC(C)[C@@H](N)C(=O)O; Ile(3ξ) = CCC(C)[C@H](N)C(=O)O; ξK = NCCCCC(N)C(=O)O; Butyryl = CCCC(=O)*
# Experiments:
# Gene cluster 2631 = assay: HiTES in S. erythraea, gene cluster 2631; assay type: cell-based; conditions: FIG. 10
# Gene cluster 3648 = assay: HiTES in S. avermitilis, gene cluster 3648; assay type: cell-based; conditions: FIGS. 16 and 17
# Gene cluster 4143 = assay: HiTES in S. erythraea, gene cluster 4143; assay type: cell-based; conditions: FIG. 12
# Gene cluster 4477 = assay: HiTES in S. erythraea, gene cluster 4477; assay type: cell-based; conditions: FIG. 14
# Gene cluster 4286 = assay: HiTES in S. erythraea, gene cluster 4286; assay type: cell-based; conditions: FIG. 13
# S. cerevisiae = assay: Antifungal microtiter assay; assay type: cell-based; conditions: Saccharomyces cerevisiae, 40 h, OD600
# Procedure: Bacillus subtilis 168, E. coli K 12, Pseudomonas aeruginosa PAO1, Enterococcus faecalis OG1RF, Staphylococcus aureus Newman, Saccharomyces cerevisiae and Saccharomyces pombe were used for antibiotic assays. B. subtilis (30° C.), E. coli (37° C.), P. aeruginosa (30° C.), and E. faecalis (37° C.) were cultured in LB medium at the temperatures indicated. S. aureus was cultured in Brain-Heart-Infusion (BHI) medium at 37° C. S. cerevisiae and S. pombe were grown at 25° C. in YPM medium (0.5% yeast extract, 0.3% peptone, 2.5% mannitol), and YES medium (0.5% yeast extract, 3% glucose, 225 mg/L leucine, 225 mg/L histidine, 225 mg/L adenine, 225 mg/L uracil), respectively. The assays were carried out in accordance with the 2003 guidelines of the Clinical and Laboratory Standards Institute (CLSI) using the microtiter method. Briefly, microbial seed cultures were initiated by inoculating 3 mL of the indicated medium each strain and by growing these overnight at the indicated temperatures. Each culture was then diluted to an initial OD600 nm of 0.02 in 100 μL volume per well in a 96-well plate, which gave an inoculum of ˜5×10^5 to 5×10^6 cells. […] The plates were then incubated at the temperatures listed above without shaking and OD600 nm determined after 16 h (bacteria) or 40 h (yeast). […]
# [1] = test system: 36 diverse cancer cell lines; conditions: cited from earlier work
# sur cluster = assay: High-throughput elicitor screen (HiTES), eGFPx3 reporter strains of the sur cluster; assay type: cell-based, Streptomyces albus J1074; conditions: attB::Psur-eGFPx3 and surE::eGFPx3, ~33 μM, 60 h, hit threshold 2.5-fold eGFP fluorescence
# Procedure: These next four steps are seen be referring to the previously described example. In the previously described example, HiTES was carried out using the two constructs seen in FIGS. 2B and 2C with a ˜500-member natural products library. Each S. albus construct was grown in a 96-well format, supplemented with the compound library, and the effect of each compound on the silent BGC determined using eGFP-derived fluorescence. Interference from naturally fluorescent compounds in the library was eliminated by subtracting the […], immediately after addition of the library members.
# Referring to FIGS. 3A and 3B, results for both genetic constructs are shown. These graphs show relative expression of a neutral site reporter, attB::Psur-eGFPx3 (FIG. 3A) or targeted sur reporter, surE::eGFPx3 (FIG. 3B) as a function of exogenously-supplied small molecules. Each bar represents the level of expression of sur in the presence of a single candidate elicitor. Plus signs denote the positive control, attB::PermE-eGFPx3. Minus signs denote the negative controls, attB::Psur-eGFPx3 (3A) or surE::eGFPx3 (3B) in the absence of any metabolites. The expression has been normalized to the positive control.
# In this example, the threshold amount was a 2.5 fold induction of eGFP-derived fluorescence emission. Thus, hits were considered those that gave at least a 2.5-fold induction of eGFP-derived fluorescence emission. However, in other embodiments, hits may be those giving at least a 2 fold induction, more preferably at least a 3 fold induction, and more preferably at least a 4 fold induction.
# Seed cultures for the reporter strains sur::eGFPx3, attB::Psur-eGFPx3, negative control wild-type, and positive control attB::PermE-eGFPx3 inoculated by transferring fresh spores (˜10^7) into 20 mL of YEME medium (per L: 3% (w/v) yeast extract, 5% peptone, 3% malt extract, 1% glucose and 10.7% sucrose, and 5 mM MgCl2.6H2O) in a 125 mL Erlenmeyer flask equipped with stain-less steel springs. The cultures were grown at 30° C. and 250 rpm for 3 days. Mycelia from each of the four cultures were collected by centrifugation (10 min, 3000 g, RT) and diluted into 150 mL of R4 medium to give a final concentration of 0.05% (w/v). R4 medium consisted of (per L) 0.5% (w/v) glucose, 0.1% yeast extract, 0.5% MgCl2.6H2O, 0.2% CaCl2.2H2O, 0.15% proline, 0.118% valine, 0.28% TES, 50 mg/L casamino acid, 100 mg/L K2SO4, and 1× trace element solution, which contains 40 mg/L ZnCl2, 200 mg/L FeCl3.6H2O, 10 mg/L CuCl2.2H2O, 10 mg/L MnCl2.4H2O, 10 mg/L Na2B4O7.10H2O, and 10 mg/L (NH4)6Mo7O24.4H2O).
# Subsequently, the two reporter strains (sur::eGFPx3 and attB::Psur-eGFPx3) were each dispensed into 5× sterile, clear-bottom 96-well plates (150 μL per well) using a MultiFlo Microplate Dispenser (BioTek). A separate sterile 96-well separate plate was prepared for positive and negative controls; it contained the negative control (wt S. albus J1074) in columns 1-3, sur::eGFPx3 in columns 4-6, attB::Psur-eGFPx3 in columns 7-9, and the positive control attB::PermE-eGFPx3 in columns 10-12 of the plate. No elicitors were added to the control plates. […] Upon additional of the compound library, t=0 fluorescence reads were recorded on a Synergy H1MF plate reader (BioTek) using Aex=485 nm and Aem=505-650 nm in 5 nm steps. […]
# surA and surC = assay: RT-qPCR of surA and surC transcripts in wt S. albus; assay type: cell-based, Streptomyces albus J1074; conditions: for induction of surA and surC: mRNA vs DMSO control, wt S. albus
# Procedure: In the example above, the effects of these putative elicitors on the sur cluster were validated by performing a RT-qPCR with wt S. albus. Upon exposure of S. albus to each elicitor or DMSO (control), total RNA was be isolated, converted to cDNA and the surA and surC transcripts quantified by qPCR. […] To further verify the effect of 1 and 2, a dose-response assay was carried out. With both elicitors, a concentration-dependent induction of sur was observed, yielding optimal upregulation at a final concentration of ˜23 μM (etoposide) and −30 μM (ivermectin) (FIG. 4B). These concentrations induced a ˜10-fold (etoposide) and 4.5-fold (ivermectin) upregulation of surC.
# All operations involving RNA utilized a dedicated RNase-free work area. To commence the experiment, seed cultures of wt S. albus J1074 were prepared by inoculating 3 ml of TSBY medium (3% (w/v) tryptic soy broth and 0.5% yeast extract) in a sterile 14 ml bacterial culture tube with freshly-prepared spores (˜10^7). The culture was incubated at 30° C. and 250 rpm in an Ecotron Shaker (ATR). After 48 hours cultivation, the cells were collected by centrifugation and subsequently diluted to a final concentration of 0.05% (w/v) in 250 ml Erlenmeyer flask containing 50 ml of R4 medium. Desired elicitors were added to final concentrations indicated in the figures (typically 1-100 μM), and the cultures were incubated at 30° C. and 250 rpm. After 48 h, 1 ml was removed from each sample and transferred to a 1.5 ml RNase-free Eppendorf tube (Ambion). Each sample was centrifuged (16,000 g, 3 min) to collect the cells, the supernatant discarded, the cells flash-frozen in liquid N2, and stored at −80° C.
# RNA isolation was carried out using the Qiagen RNeasy kit following the manufacturer's instructions without modifications. Upon isolation, contaminating DNA was removed using the DNA-free kit (Ambion) according to manufacturer's instructions. Gel electrophoreses subsequently confirmed RNA integrity (FIG. S2). Finally, total RNA was converted into cDNA via the PrimeScript™ RT reagent Kit (Takara) using random hexamers as primers and 500 ng of each RNA sample as template.
# Three genes (surA, surC and surR) were chosen for quantification by RT-qPCR. The primers were designed using primer-3-plus software available online. The primers were carefully chosen to give an amplicon length of 130-160 bp and a melting temperature of 60° C., though this was later optimized (see below and Table 2). The primers were chosen to vary in length between 18-22 bp, and, if possible, to contain a single G/C clamp at the 3′ end. To ensure optimal qPCR parameters, the genomic DNA of S. albus J1074 was isolated using the Wizard genomic DNA purification kit (Promega), and each amplicon was subsequently amplified using standard PCR conditions with a high-fidelity, proof-reading Q5 DNA polymerase (NEB). The PCR reactions were then separated on a 1.2% agarose gel, the amplicon excised, and gel-extracted with the Gel Extraction kit (Qiagen). The extracted DNA was used to optimize qPCR conditions. Using the amplicon template, the primer concentrations were first varied followed by the annealing/extension temperatures, which ranged from 58-68° C. in eight steps. The combination that gave the lowest quantification cycle (Cq) was used in the experiments (Table 2). The Cq was obtained with an automatic baseline determined by the CFX Manager Software (Bio-Rad). As positive controls, these standards were included in every plate that contained the experimental samples, along with no-DNA controls, in duplicates.
# qPCR analysis was performed on a CFX96 Real-Time PCR Detection System (Bio-Rad) consisting of a C1000 Thermal Cycler and a CFX96 Real-Time System. The reaction was carried out in hard-shell, clear 96-well qPCR plates (Bio-Rad) and utilized the iTaq Universal SYBR Green Supermix (Bio-Rad). […]
# cathepsin B = biological target: T1, cathepsin B (Homo sapiens, UniProt P07858); assay: Cathepsin B inhibition assay (fluorescence kit); assay type: biochemical
# T1 construct: purchased Sigma-Aldrich
# Procedure: Cathepsin B inhibition assays were carried as previously reported using the Cathepsin B Inhibition assay kit (Sigma-Aldrich). The fluorescence-based assays was conducted in a final volume of 50 μL according to manufacturer instructions. Fluorescence emission was determined in a microtiter plate in kinetic mode (1 read per minute for 1 h) using a BioTek H1MF plate reader and Aex˜400/Acm˜505 nm. IC50 values were subsequently calculated according to instructions.
compound,measurement,setting,value
COc1c2ccoc2cc2oc(=O)ccc12 [Bergapten],elicitor of gene cluster 2631 (ranking),Gene cluster 2631,top three elicitors
COc1cc(CNC(=O)CCCC/C=C/C(C)C)ccc1O [Capsacin],elicitor of gene cluster 3648 (ranking),Gene cluster 3648,top four elicitors
OCc1c[nH]c2ccccc12 [Indole-3-carbinol],elicitor of gene cluster 4143 (ranking),Gene cluster 4143,top three elicitors
same,elicitor of gene cluster 4477 (ranking),Gene cluster 4477,top three elicitors
CC#C[C@]1(O)CC[C@H]2[C@@H]3CCC4=CC(=O)CCC4=C3[C@@H](c3ccc(N(C)C)cc3)C[C@@]21C [Mifepristone],elicitor of gene cluster 3648 (ranking),Gene cluster 3648,top four elicitors
CC[C@H](C)/C=C(C)/C=C/C1=CC2=C(Cl)C(=O)[C@](C)(OC(C)=O)C(=O)C2=CO1 [Sclerotiorin],elicitor of gene cluster 4286 (ranking),Gene cluster 4286,top three elicitors
CCCC(=O)NCCCCC1NC(=O)[C@@H](C(C)CC)NC(=O)[C@H](C(C)CC)NC(=O)[C@@H](C)NC(=O)[C@H](C(C)CC)NC(=O)[C@@H](CC(C)C)NC(=O)[C@@H](Cc2ccccc2)NC(=O)[C@H](C(C)CC)NC1=O (stereo partly drawn) [acylsurugamide A] (cyclo([Ile(3ξ)][dA][Ile(3ξ)][dIle(3ξ)][ξK](Butyryl)[Ile(3ξ)][dF][dL])),IC50,S. cerevisiae,3.5 µM
"CNC1=CC(=O)c2cc(C)ncc2C1=O [compound 25, 3-methyl-7-methylamino-5,8-isoquinolinedione]",IC50,[1]; read-out: IC50s (range over panel),0.2 to 50 µM
same,IC50,[1]; read-out: mean IC50,3.5 µM
CC(C)[C@@]1(NC(=O)[C@@H]2C[C@@H]3c4cccc5[nH]cc(c45)C[C@H]3N(C)C2)O[C@@]2(O)[C@@H]3CCCN3C(=O)[C@H](Cc3ccccc3)N2C1=O [dihydroergocristine],induction of the sur cluster in both reporter strains (hit ranking),sur cluster,best hits
same,induction of surA and surC,surA and surC,3 fold
Oc1cc(O)cc(/C=C/c2ccc(O)c(O)c2)c1 [piceattanol],induction of the sur cluster in both reporter strains (hit ranking),sur cluster,best hits
CC(C)C[C@H]1NC(=O)[C@@H](Cc2ccccc2)NC(=O)[C@H](C(C)C)NC(=O)[C@H](CCCCN)NC(=O)[C@@H](C(C)C)NC(=O)[C@H](C(C)C)NC(=O)[C@@H](C)NC(=O)[C@H](C(C)C)NC1=O [surugamide I] (cyclo(KV[dF][dL]V[dA]V[dV])),IC50,cathepsin B,9 µM
bromolaudanosine,induction of the sur cluster in both reporter strains (hit ranking),sur cluster,best hits
ivermectin,elicitor of gene cluster 4143 (ranking),Gene cluster 4143,top three elicitors
same,induction of the sur cluster in both reporter strains (hit ranking),sur cluster,best hits
same,upregulation of surC,"surA and surC; at the optimal elicitor concentration, vs DMSO",4.5 fold
same,induction of surA and surC,surA and surC,3 fold

# Source: patent US11629174B2, “Cryptic metabolites and method for activating silent biosynthetic gene clusters in actinomycete bacteria” (The Trustees of Princeton University, priority 2017, dated 2023)
